From patent publication US12331093B2, “Fusion polypeptides for metabolic disorders” (BEIJING QL BIOPHARMACEUTICAL CO., LTD., priority 2021, dated 2025)

How the values were obtained:
[1] = Food intake and body weight reduction in DIO mice; format: in vivo, C57BL/6 mice; conditions: 10 nmol/kg QD
Experimental: 22 week old DIO male C57BL/6 mice (˜50 g) were injected once every other day (Q2D) subcutaneously with designated GLP-1 polypeptide conjugates (i.e., Molecule 012) for 25 days. Food intake and body weight were measured twice a week and fasting blood glucose was measured once a week. Five animals were used for each treatment group. Body weight and fasting blood glucose was monitored for each individual animal, but food intake for each group animals was measured together. Day 1 and Day 25 are first day and last day of molecule dosage. Data are indicated as mean values and standard error (SEM) or pooled values. Statistical analysis was performed by One-way ANOVA. Body weight reduction on Day 25 is calculated by −1*(% BW loss−% BW loss of vehicle group); Cumulative food intake reduction is calculated by −100*(cumulative food intake−cumulative food intake of vehicle)/cumulative food intake of vehicle.

human beta-Klotho = molecular target: T1, human beta-Klotho (Homo sapiens, UniProt Q86Z14); test: In vitro FGF21 activity, p-ERK levels in HEK293 cell line overexpressing human beta-Klotho; format: cell-based; conditions: compared with YH-dual
T1 construct: expressed in transfected cells; host or cells: HEK293 cell line
Experimental: The in vitro FGF21 activities of the fusion protein were assessed using a HEK293 cell line overexpressing human beta-Klotho. Tested fusion protein conjugates were measured at 400 nM top concentration with 4-fold serial dilutions in the presence of 1% HSA. After cells were treated with fusion protein conjugates for 12 mins, p-ERK levels were measured by p-ERK kit (Cisbio, 64ERKPEH).
The activity of each fusion protein was represented by EC50, derived from non-linear regression analysis.

[2] = Metabolic parameters in DIO animal model, 21 days; format: in vivo, C57BL/6 mice; conditions: DIO mice, QD subcutaneously, FIG. 4B
Experimental: 16 week old DIO male C57BL/6 mice (35˜40 g) were injected once daily (QD) subcutaneously with designated GLP-1/FGF21 conjugates (i.e., MLC #9, MLC #14, MLC #16 and MLC #17) for 21 days. Food intake and body weight were measured once everyday and non-fasting blood glucose was measured once every three days. Five animals were used for each treatment group. Body weight and blood glucose was monitored for each individual animal, but food intake for each group of animals was measured together. Day 1 and Day 21 are first day and last day respectively of the treatment. Terminal blood was collected and EDTA-K3 plasma was prepared and frozen at −80° C. for biomarker measurement (LDL-C, TC, TG, ALT, insulin, adiponectin). Liver and adipose tissue were also collected and frozen in liquid nitrogen and store at −80° C. Data are indicated as mean values and standard error (SEM) or pooled values. Statistical analysis was performed by One-way ANOVA. Body weight reduction on Day 21 is calculated by −1*(% BW loss−% BW loss of vehicle group); Cumulative food intake reduction is calculated by −100*(cumulative food intake−cumulative food intake of vehicle)/cumulative food intake of vehicle.

Substance | Body weight reduction (% reduction compared to vehicle) (Day 11) [1] | Cumulative food intake reduction (% reduction compared to vehicle) (Day 11) [1] | FGF21 efficacy (FIGS. 2A and 2B) (human beta-Klotho) | non-fasting glucose level [2]
Control#2: GLP1(del7-8, 22E, 36G)-(GAQP)5-ALB8-(GAQP)10-FGF21 (121Q, 168L, 171G, 180E), SEQ ID NO: 72, GLP1 dead [reference compound] | 21.7% | 19.1% | – | –
Control#6: GLP1(del7-8, 22E, 36G)-(GAQP)5-ALB8-(GAQP)-FGF21 (121Q, 168L, 171G, 180E), SEQ ID NO: 78, GLP1 dead [reference compound] | 24.6% | 13.1% | significantly higher FGF21 efficacy than YH-dual | –
Semaglutide [reference compound] | – | – | – | 7.5 to 10 mmol/L
